The test system of data set [1] is chronic osteoarthritic knee joint pain. In words: Randomized, double-blind, placebo-controlled, single-dose trial of intraarticular Resiniferatoxin (Example 3). In kind it is in vivo, human. The following applies: for subjects with severe adverse events: none considered related to investigational medicinal product or Ropivacaine. The procedure:
The primary objective of this study was to compare the analgesic effects of single intraarticular injections of Resiniferatoxin (100 or 400 ng) compared to placebo, at 3 and 6 months postinjection, in participants with chronic osteoarthritic knee joint pain. Secondary objectives were to evaluate the analgesic effects of Resiniferatoxin versus placebo in terms of a responder analysis (percentage of subjects achieving ≥50% or ≥70% reduction in visual analog scale pain score) and changes in Western Ontario and McMaster Universities Arthritis Index (WOMAC) total and subscale scores (pain, physical function and stiffness). Safety and injection site pain were also evaluated.
The study was conducted as a randomized, double-blind, placebo-controlled, single-dose trial of Resiniferatoxin. Eligible patients were aged 40 to 80 years with radiographic knee osteoarthritis (Kellgren-Lawrence Grade 2-4 in the last 3 years) and a baseline visual analog scale (0-100 mm) pain score ≥40 mm on motion in the target knee, with or without pain medication. 67 subjects were randomized to treatment with either Resiniferatoxin 100 ng (n=24) or 400 ng (n=23), or placebo (n=20), administered intraarticularly into the index knee. Intraarticular Ropivacaine (5 ml, 0.5%) was administered 15 mins before investigational medicinal product. Visual analog scale scores were used to evaluate pain on motion as the average of the last 2 days in a target knee between baseline and at 3 and 6 months post injection. Injection site pain was rated (visual analog scale) from baseline (−0.5 h) up to 3 h post intraarticular injections.

Data set [2] has as its system moderate to severe pain due to osteoarthritis of the knee. The following applies: one-time intraarticular dose 5 to 30 μg; cited from earlier work.
Setting [3] is: single intraarticular dose 100 ng or 400 ng.

With `C=C(C)[C@]12C[C@@H](C)[C@@]34O[C@](Cc5ccccc5)(O[C@@H]1[C@@H]3C=C(COC(=O)Cc1ccc(O)c(OC)c1)C[C@]1(O)C(=O)C(C)=C[C@@H]41)O2` [Resiniferatoxin, 4-hydroxy-3-methoxy-benzeneacetic acid, [(2S,3aR,3bS,6aR,9aR,9bR, 10R,11aR)-3a,3b,6,6a,9a,10,11,11a-octahydro-6a-hydroxy-8,10-dimethyl-11a-(1-methylethenyl)-7-oxo-2-(phenylmethyl)-7H-2,9b-epoxyazuleno[5,4-e]-1,3-benzodioxol-5-yl]methyl ester], the “reduction in WOMAC total and subscale scores (pain, physical function and stiffness) compared to placebo” value in data set [1] (100 ng and 400 ng, at both 3 and 6 months) is “greater reduction in WOMAC total and subscale scores”. The “subjects with severe adverse events” value in data set [1] (100 ng group (n=24)) is recorded as 2 subjects. In data set [1] (100 ng or 400 ng intraarticular), the “pain reduction (VAS pain on motion) compared to placebo” value was “greater pain reduction than subjects receiving placebo”. The “injection site pain (procedural pain) compared to placebo” value in data set [1] (100 ng or 400 ng intraarticular, VAS up to 3 h post injection) is recorded as “generally higher”. The “subjects with severe adverse events” value in data set [1] (400 ng group (n=23)) is reported as 3 subjects. In data set [1] (intention-to-treat population, first trial visit post-injection), the “first visit at which reduction in VAS pain on motion was observed” value is ≤ 8 days. Besides, in data set [1] (intention-to-treat population, last trial visit), the “last visit until which reduction in VAS pain on motion lasted” value is recorded as ≥ 6 month. In addition, the “time of return of injection site pain to baseline” value in data set [1] (post-injection) is ≤ 3 h. Besides, in data set [1] (setting [3]), the analgesic onset result is recorded as “within one week of administration”; the “duration of analgesia during follow-up” value is recorded as “at least 3 months”; the safety and tolerability result is “good safety profile and to have been well tolerated”. The efficacy entry in data set [2] was “Preliminary efficacy was also observed”.

(Values after patent US20250228775A1, “ETHANOLIC RESINIFERATOXIN CONCENTRATE” (Gruenenthal GmbH, priority 2024, published 2025).)
